Here are results for 5 compounds from ChEMBL document CHEMBL1938369, “A small molecule inhibitor of p53-inducible protein phosphatase PPM1D” (Bioorg Med Chem Lett, 2012).

A word on the inhibition: it is the drop in the measured response relative to a control, in per cent. By IC50 is commonly meant the concentration needed to halve the response being measured. Read a low IC50 as inhibition by little substance.

For test [1], the target named is T1, Protein phosphatase 1D (Homo sapiens) (UniProt O15297).
T1 sequence (whole entry): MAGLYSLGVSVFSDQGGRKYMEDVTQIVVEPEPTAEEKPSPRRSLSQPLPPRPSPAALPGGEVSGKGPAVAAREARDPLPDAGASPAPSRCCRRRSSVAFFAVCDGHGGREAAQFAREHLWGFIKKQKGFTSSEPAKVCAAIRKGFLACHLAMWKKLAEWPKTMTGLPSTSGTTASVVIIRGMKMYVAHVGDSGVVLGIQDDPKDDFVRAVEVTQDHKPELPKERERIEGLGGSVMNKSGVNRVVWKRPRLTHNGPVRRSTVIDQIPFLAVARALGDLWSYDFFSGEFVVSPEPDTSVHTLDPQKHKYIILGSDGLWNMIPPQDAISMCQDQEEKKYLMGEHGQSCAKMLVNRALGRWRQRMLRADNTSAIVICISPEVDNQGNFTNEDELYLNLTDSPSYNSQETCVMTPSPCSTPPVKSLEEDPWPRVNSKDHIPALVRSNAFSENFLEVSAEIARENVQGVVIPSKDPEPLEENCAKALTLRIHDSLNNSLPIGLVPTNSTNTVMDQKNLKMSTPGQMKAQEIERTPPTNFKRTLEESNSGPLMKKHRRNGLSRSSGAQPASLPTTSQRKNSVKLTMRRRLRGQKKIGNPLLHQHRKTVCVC
Nature of the test: Inhibition of N-terminal histidine-tagged PPM1Dc at 4 uM after 10 mins by BIOMOL GREEN assay.

Test [2] relates to MCF7. Nature of the test: Antiproliferative activity against human MCF7 cells overexpressing PPM1D at 40 uM after 1 to 5 days by trypan blue assay. In kind it is functional.
For test [3], the system named is MCF7. Nature of the test: Antiproliferative activity against human MCF7 cells overexpressing PPM1D after 1 to 5 days by trypan blue assay. The test is classed as functional, cell-based.
Test [4] concerns MCF7. Nature of the test: Induction of cell cycle arrest in human MCF7 cells assessed as accumulation at G2/M phase at 40 uM after 1 day by propidium iodide staining-based flow cytometry (reference value: 21.4 %). The test is classed as functional. (Flow cytometry measures light scatter and fluorescence of single cells or particles in a stream.)
The test system of test [5] is MCF7. Nature of the test: Induction of cell cycle arrest in human MCF7 cells assessed as accumulation at Sub-G1 phase at 40 uM after 3 days by propidium iodide staining-based flow cytometry (reference value: 9.4 %). The test is classed as functional.
In test [6] the test system is MCF7. Nature of the test: Induction of cell cycle arrest in human MCF7 cells assessed as accumulation at G2/M phase at 40 uM after 3 days by propidium iodide staining-based flow cytometry (reference value: 22.9 %). The test is classed as functional.
A short description of test [7]: Selectivity ratio for PPM1Dc over PPM1A.
The test system of test [8] is MCF7. Nature of the test: Increase in PPM1D protein expression in human MCF7 cells at 10 uM after 24 hrs by immunofluorescence analysis. The test is classed as functional, cell-based.
Test [9] has as its system MCF7. Nature of the test: Induction of cell cycle arrest in human MCF7 cells assessed as accumulation at G2/M phase at 40 uM after 5 days by propidium iodide staining-based flow cytometry (reference value: 21.2 %). In kind it is functional.
The subject of test [10] is MCF7. Nature of the test: Induction of cell cycle arrest in human MCF7 cells assessed as accumulation at G1 phase at 40 uM after 1 day by propidium iodide staining-based flow cytometry (reference value: 45.6 %). The test is classed as functional.
The target in the next test is T2, Protein phosphatase 1D (Homo sapiens, UniProt O15297).
T2 sequence (O15297 whole entry): T1 sequence (whole entry)
Nature of the test: Inhibition of N-terminal histidine-tagged PPM1Dc after 10 mins using BIOMOL GREEN assay.

The subject of test [11] is MCF7. Nature of the test: Induction of cell cycle arrest in human MCF7 cells assessed as accumulation at […] phase at 40 uM after 5 days by propidium iodide staining-based flow cytometry (reference value: 13.8 %). The test is classed as functional.
The subject of test [12] is MCF7. Nature of the test: Induction of cell cycle arrest in human MCF7 cells assessed as accumulation at G1 phase at 40 uM after 3 days by propidium iodide staining-based flow cytometry (reference value: 38.5 %). In kind it is functional.
Test [13] is described as follows: Inhibition of PP2A using Ac-DDEMT(P)GYVATR-NH2 as substrate at 40 uM after 10 mins by BIOMOL GREEN assay.
Test [14] concerns MCF7. Nature of the test: Induction of cell cycle arrest in human MCF7 cells assessed as accumulation at […] phase at 40 uM after 3 days by propidium iodide staining-based flow cytometry (reference value: 29.3 %). In kind it is functional.
Test [15] has as its system MCF7. Nature of the test: Induction of cell cycle arrest in human MCF7 cells assessed as accumulation at […] phase at 40 uM after 1 day by propidium iodide staining-based flow cytometry (reference value: 24 %). The test is classed as functional.
Test [16] deals with MCF7. Nature of the test: Induction of cell cycle arrest in human MCF7 cells assessed as increase in accumulation at Sub-G1 phase at 40 uM after 1 day by propidium iodide staining-based flow cytometry. The test is classed as functional.
Test [17] relates to MCF7. Nature of the test: Induction of cell cycle arrest in human MCF7 cells assessed as accumulation at Sub-G1 phase at 40 uM by propidium iodide staining-based flow cytometry. The note with it: TDE = time-dependent effect. The test is classed as functional.
The subject of test [18] is MCF7. Nature of the test: Increase in PPM1D protein expression in human MCF7 cells by Western blot analysis. In kind it is functional, cell-based. (In general: A western blot detects proteins with antibodies after separation by electrophoresis.)
For test [19], the target named is T1, Protein phosphatase 1D (Homo sapiens). Nature of the test: Inhibition of PPM1D in human MCF7 cells assessed as increase in p53 phosphorylation at Ser15 by Western blot analysis. In kind it is cell-based.
Test [20] relates to MCF7. Nature of the test: Induction of cell cycle arrest in human MCF7 cells assessed as accumulation at Sub-G1 phase at 40 uM after 5 days by propidium iodide staining-based flow cytometry (reference value: 8.1 %). The test is classed as functional.
Test [21] concerns MCF7. Nature of the test: Induction of cell cycle arrest in human MCF7 cells assessed as accumulation at G1 phase at 40 uM after 5 days by propidium iodide staining-based flow cytometry (reference value: 57 %). In kind it is functional.
The target of test [22] is T3, Protein phosphatase 1A (Homo sapiens) (UniProt P35813).
T3 sequence (whole entry): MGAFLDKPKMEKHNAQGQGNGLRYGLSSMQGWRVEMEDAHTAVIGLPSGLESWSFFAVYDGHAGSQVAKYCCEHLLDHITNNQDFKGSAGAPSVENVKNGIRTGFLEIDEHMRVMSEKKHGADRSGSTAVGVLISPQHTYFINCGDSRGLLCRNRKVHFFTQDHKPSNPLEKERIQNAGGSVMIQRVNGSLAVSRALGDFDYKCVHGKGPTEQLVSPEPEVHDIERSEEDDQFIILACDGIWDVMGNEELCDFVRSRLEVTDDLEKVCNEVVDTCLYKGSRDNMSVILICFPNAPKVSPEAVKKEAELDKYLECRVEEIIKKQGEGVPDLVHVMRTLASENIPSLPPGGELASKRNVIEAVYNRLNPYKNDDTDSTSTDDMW
Nature of the test: Inhibition of wild-type PPM1A expressed in BL21(DE3)pLysS cells at 40 uM after 10 mins by BIOMOL GREEN assay. The test is classed as cell-based.

The subject of the next test is A549. Nature of the test: Antiproliferative activity against human A549 cells at 40 uM after 1 to 5 days by trypan blue assay. The test is classed as functional, cell-based.
In test [23] the target is T1, Protein phosphatase 1D (Homo sapiens). Nature of the test: Inhibition of PPM1D in UV-irradiated human MCF7 cells assessed as increase in p53 phosphorylation at Ser15 measuring p53 protein level by Western blot analysis. In kind it is cell-based.

The source made the active and inactive calls. No cut-off for these calls is given here. Bounds are passed on as bounds.

`C[C@H]1C[C@@H](O)[C@H]2C[C@H](O[Si](C)(C)C(C)(C)C)[C@@H]3[C@](C)(CO)C[C@H](O)C[C@@]3(C)[C@@H]2C1` showed an inhibition in test [1] of 25.1%.
`CC[Si](CC)(CC)O[C@@H]1C[C@H](C)C[C@@H]2[C@@H]1C[C@H](O[Si](C)(C)C(C)(C)C)[C@H]1[C@@]2(C)C[C@@H]2C[C@@]1(C)C(O)O2` (stereo not given in full) had an inhibition in test [1] of 87.1%.
Take `C[C@H]1C[C@@H](O)[C@H]2C[C@H](O)[C@@H]3[C@](C)(CO)C[C@H](O)C[C@@]3(C)[C@@H]2C1`: in the test with MCF7 [2], the result was inactive. Further, the inhibition in [1] was determined as 6.3%.
Compound `CC[Si](CC)(CC)O[C@@H]1C[C@H](C)C[C@@H]2[C@@H]1C[C@H](O[Si](C)(C)C(C)(C)C)[C@@H]1[C@](C)(CO)CC(=O)C[C@@]21C` had an inhibition in test [1] of 79.4%.
Turning to `CC[Si](CC)(CC)O[C@@H]1C[C@H](C)C[C@@H]2[C@@H]1C[C@H](O[Si](C)(C)C(C)(C)C)[C@@H]1[C@](C)(CO)C[C@H](O)C[C@@]21C`, the Activity entry was “Dose-dependent effect” in the test on MCF7 [3]; 16.8% in the test on MCF7 [4]; 16.4% with MCF7 [5]; 28.2% in the test on MCF7 [6]; above 60% in the test with MCF7 [2]; 12.9% with MCF7 [9]. For the same compound, the Activity in the test with MCF7 [10] is 39%; in the test with MCF7 [11] it was 15%; in the test with MCF7 [12] it was 39.3%; in the test on MCF7 [14], 16%; with MCF7 [15] it was 29.8%; with MCF7 [16], 5.3%. In addition, the figures for the Activity entry with MCF7 [17], in the test on MCF7 [20] and with MCF7 [21] were “tde”, 25.3% and 46.8%, respectively. Further, in test [7], the Selectivity ratio came out at 50. For the same compound, the result in the test with MCF7 [8] and in the test with MCF7 [18] was Active. For the same compound, the results for the inhibition in [1], in test [13] and in test [22] were 97.1%, 11% and 68%, respectively. This compound returned an IC50 against Protein phosphatase 1D of 480 nM. Further, the inhibition result in test [19] and in test [23] was “Active” throughout. In addition, the outcome in the test with A549 was inactive.
